Data taken from patent US20250057790A1, “AN INJECTABLE PHARMACEUTICAL COMPOSITION FOR THE TREATMENT OF RESPIRATORY DISEASES IN ANIMALS” (priority 2021, published 2025).
≈ marks a conversion by molar mass, not a printed value.

What was measured:
[1] = tested on: A. pleuropneumoniae; assay: MIC determination, broth-microdilution (CLSI VET01-A4), field isolates; type: cell-based, Actinobacillus pleuropneumoniae
Protocol: This study determined the in vitro activity Compound (A), the enantiomer of the compound of Formula (I), against different isolates of Actinobacillus (A.) pleuropneumoniae, Bordetella (B.) bronchiseptica, Mannheimia (M.) haemolytica, Pasteurella (P.) multocida, Histophilus (H.) somni and Glaesserella parasuis collected in different European countries.
The in vitro activity was determined by measuring the minimum inhibitory concentrations (MIC) according to CLSI document VET01-A4 [1] and by calculating MIC50 and MIC90.
A total of 193 field isolates were tested: 31 of A. pleuropneumoniae, 20 of B. bronchiseptica, 20 of H. somni, 20 H. parasuis, 55 of M. haemolytica and 47 of P. multocida. All bacteria were isolated from the respiratory tract of cattle and swine suffering from respiratory disease. All isolates were epidemiologically unrelated as specified by the different suppliers. E. coli ATCC 25922 (ID 6105) and M. haemolytica ATCC 33396 (ID 6374) were used as reference strains for testing isolates of B. bronchiseptica, M. haemolytica and P. multocida. A. pleuropneumoniae ATCC 27090 (ID 6314) and H. somni ATCC 700025 (ID 6315) were used as reference strains for the testing isolates of A. pleuropneumoniae, H. somni and Glaesserella parasuis. Additionally, H. parasuis (G. parasuis) ATCC 19417 was included as type strain for growth control.
• Mueller-Hinton agar (Becton Dickinson, Lot 9224866) • Cation-adjusted Mueller-Hinton broth, (CAVHB, Becton Dickinson, Lot 8190586) • Sheep blood, defibrinated (Thermo Scientific, Lot 37091500) • Chocolate agar, GC II with IsoVitalex™ (Becton Dickinson, Lot 0147695) • GC-agar base (Becton Dickinson, Lot 6082608) • Hemoglobin solution (Becton Dickinson, Lot 7142854) • Vitox (Oxoid, Lot 2344976) • Veterinary fastidious Medium (VFM), prepared according to CLSI document VET01-A4 [1], containing: • CAMHB (Becton Dickinson, Lot 8190586) • Yeast extract (Sigma, Lot BCBS5470V) • Lysed horse blood (Thermo Scientific, Lot 35875000) • Supplement C™ (Becton Dickinson, Lot 8030960) • Deionized water
The MICs for all isolates except for H. somni and Glaesserella parasuis isolates, were determined by using the broth-microdilution method according to CLSI document VET01-A4 [1]. For isolates of H. somni and Glaesserella parasuis the agar-dilution method with chocolate agar GC II, was used. The test concentration range for all compounds was 16 μg/mL to 0.016 μg/mL.
The MIC results were interpreted according to the CLSI document VET01-S3 [2]. […] All wells containing test item were compared with the growth-control wells. The lowest concentration of compound at which no visible growth (i.e. no turbidity) was detected by the unaided eye was recorded as the MIC. […]

[2] = Lung tissue study in cattle; type: in vivo; conditions: after slaughter
Protocol: The same animals and compositions of Compound A that were used in Example 5 were also used for the Lung tissue study. The lung was freed from the trachea and appending tissues. One half of the lung was homogenized using a food processor (Robot Coupe). Two aliquots of approximately 1 g were placed into 15 mL Falcon tubes. From the liver, kidney and a skeletal muscle (long back muscle) scissor snips from at least two locations were collected to a total mass of ca. 1 g each and placed into 15 mL Falcon tubes. Tissue samples were diluted with blank EDTA cattle plasma 1+3 (w/v) and samples were homogenized using a FastPrep™ System. After centrifugation aliquots of the supernatants were used to determine compound concentrations by a HPLC-MS/MS procedure.

[3] = Actinobacillus pleuropneumoniae, 31 isolates, broth microdilution

## COCCNCc1ccc(C#Cc2ccc(C(=O)N[C@H](C(=O)NO)C(C)(C)N)cc2)cc1 [Compound A]
[1]; [3]
  MIC50: 1 µg/mL (≈ 2.28 µM)
  MIC90: 2 µg/mL (≈ 4.56 µM)
[1]; of 31 isolates tested
  Distribution of MICs: number of isolates with MIC 1 μg/mL: 22
  Distribution of MICs: number of isolates with MIC 2 μg/mL: 9
[2]
  Detection in tissue samples from lungs: substantial amounts
